{"source": "patent US20240102057A1", "about": "“METHODS AND COMPOSITIONS USEFUL FOR THE PRODUCTION OF 4-VINYLPHENOL” (THE REGENTS OF THE UNIVERSITY OF CALIFORNIA, priority 2022, published 2024)", "key": {"Cg and Cg phdA- strains": {"tested_on": "Cg and Cg phdA- strains", "experiment": "Growth (cell density) in tryptic soy broth supplemented with 4VP or CA", "type": "cell-based, Corynebacterium glutamicum", "conditions": "24 h, FIG. 1a, b", "description": "(§1) To test whether the PAD strains were able to convert CA to 4VP and evaluate their tolerance to different concentrations of substrate and product, growth experiments were performed in tryptic soy broth supplemented with 0.25 or 0.5 g/L of 4VP, or 1, 5 or 10 g/L of CA. This rich medium was used to provide all the organisms with glucose and amino acids for growth and cell maintenance and allow for continuous PAD protein production during the 4VP production process. The bacterial cell density was measured at the time of inoculation and after 24 h of incubation, and PAD expression was induced at the beginning of the cultivations.\n(§2) Cultivations were performed in 48-well flat bottom clear plates (Corning, USA) when an organic overlay was not added, in 48-well FlowerPlates (m2p, Germany) when an overlay was added to rich medium, and in 14 mL round-bottom plastic tubes for lignin liquors with an overlay. Seed cultures of all strains listed in Table 1 were started by inoculating cells from agar plates into tubes with 5 mL of tryptic soy broth and incubating at 30° C. with vigorous shaking for 12 h. For the experiments in the clear plates, inocula were prepared by mixing 1 mL of the seed cultures with 9 mL of fresh tryptic soy broth and incubated for 8 h. […] The optical density at 595 nm was measured using a DTX880 plate reader (Beckton-Coulter, USA)."}, "[1]": {"experiment": "Distribution between aqueous phase and organic overlay in biphasic cultivations (HPLC)", "type": "physicochemical", "source_text": "One example is the extraction of 4VP from the aqueous phase with octanol in a continuous flow-bed reactor containing immobilized E. coli cells. […] Therefore, we compared the performance of octanol to other mid-chain fatty alcohols with slightly longer alkane chains, decanol and undecanol, when added as overlays to the cultivation media (20% of the aqueous phase volume). To obtain high product concentrations and identify any limitations to the amount of 4VP that can be extracted with the overlays, the four recombinant strains were incubated in the presence of 25 or 75 g/L of CA.\nThe lignocellulose-derived CA was used to cultivate the 4VP producing strains. […] However, this culture system is not amenable for repeated sampling of aqueous and organic phases to quantify metabolites or for monitoring cell growth in the presence of overlays and dark lignin liquors. Therefore, the incubations in CA-rich liquors were performed in culture tubes in presence of an undecanol overlay, and the OD, CA and 4VP concentrations were measured at 0, 12 and 24 h after inoculation. […]\nCA and 4VP were quantified by HPLC in samples taken from the aqueous and organic phases of the cultivations or lignin liquors after diluting with water (aqueous samples) or pure acetonitrile (organic samples). […]"}, "all Bacillus species": {"tested_on": "all Bacillus species", "experiment": "Growth (cell density) in tryptic soy broth supplemented with 4VP or CA", "type": "cell-based, Bacillus subtilis, Bacillus amyloliquefaciens", "conditions": "24 h, FIG. 1g-i", "description": "as §1, §2"}, "PAD enzyme": {"tested_on": "PAD enzyme", "conditions": "literature reports [10, 16, 17, 25]; cited from earlier work"}, "E. coli": {"tested_on": "E. coli", "conditions": "cited from earlier work; for toxicity of organic solvent to E. coli: literature reports [10, 16, 17, 25]"}, "microbes": {"tested_on": "microbes", "conditions": "literature report [3]; cited from earlier work"}, "E. coli (Ec)": {"tested_on": "E. coli (Ec)", "experiment": "Growth (cell density) in tryptic soy broth supplemented with 4VP or CA", "type": "cell-based, Escherichia coli", "conditions": "Ec and Ec PAD, 24 h, FIG. 1c, f", "description": "as §1, §2"}, "all tested organisms": {"tested_on": "all tested organisms", "experiment": "Growth (cell density) in tryptic soy broth supplemented with 4VP or CA", "type": "cell-based, E. coli, B. subtilis, C. glutamicum, B. amyloliquefaciens", "conditions": "tryptic soy broth with 0.25 or 0.5 g/L 4VP, 24 h", "description": "as §1, §2"}}}
{"smiles": "O=C(O)/C=C/c1ccc(O)cc1", "note": "[CA, p-coumaric acid]", "values": [{"measurement": "CA concentration in the presence of which strains are able to grow (tolerance)", "setting": "Cg and Cg phdA- strains", "value": "up to 10 g/L"}, {"measurement": "share of CA not consumed found in the aqueous phase", "setting": "[1]; octanol, decanol or undecanol overlay (20% of aqueous volume), tryptic soy broth with 25 or 75 g/L CA", "value": "more than 90%"}, {"measurement": "CA concentration above which strains are unable to grow", "setting": "all Bacillus species", "value": "more than 1 g/L"}]}
{"smiles": "CCCCCC", "note": "[hexane]", "values": [{"measurement": "effect of organic solvent on PAD enzyme activity", "setting": "PAD enzyme", "value": "inhibition"}, {"measurement": "toxicity of organic solvent to E. coli", "setting": "E. coli", "value": "significant toxicity"}]}
{"smiles": "CCCCCCCCO", "note": "[octanol]", "values": [{"measurement": "effect of organic solvent on PAD enzyme activity", "setting": "PAD enzyme", "value": "inhibition"}, {"measurement": "toxicity of solvent to microbes", "setting": "microbes", "value": "significant toxicity"}, {"measurement": "toxicity of organic solvent to E. coli", "setting": "E. coli", "value": "significant toxicity"}]}
{"smiles": "C=Cc1ccc(O)cc1", "note": "[4VP, 4-vinylphenol]", "values": [{"measurement": "4VP concentration displaying growth inhibition", "setting": "E. coli (Ec)", "value": 0.25, "unit": "g/L"}, {"measurement": "toxicity of 4VP", "setting": "all tested organisms", "value": "very toxic"}, {"measurement": "toxicity to E. coli relative to CA", "setting": "E. coli; literature report [12]", "value": "significantly more toxic to E. coli than CA"}, {"measurement": "share of product extracted in the organic phase", "setting": "[1]; undecanol overlay, lignin liquors from corn stover residue", "value": 97, "unit": "%"}]}
